Test results reported in ChEMBL document CHEMBL4334516, “Kinase Chemodiversity from the Arctic: The Breitfussins” (J Med Chem, 2019).

Legend:
MOLT-4 = experiment: Cytotoxicity in human MOLT4 cells assessed as reduction in cell viability incubated for 72 hrs by MTS assay; type: functional, cell-based; details: MOLT-4, 72 h
[1] = biological target: Mitogen-activated protein kinase kinase kinase 9 (Homo sapiens, UniProt P80192); experiment: Inhibition of MLK1 (unknown origin) by [33P]-ATP filter binding kinase assay
Mitogen-activated protein kinase kinase kinase 9, sequence (P80192 whole entry): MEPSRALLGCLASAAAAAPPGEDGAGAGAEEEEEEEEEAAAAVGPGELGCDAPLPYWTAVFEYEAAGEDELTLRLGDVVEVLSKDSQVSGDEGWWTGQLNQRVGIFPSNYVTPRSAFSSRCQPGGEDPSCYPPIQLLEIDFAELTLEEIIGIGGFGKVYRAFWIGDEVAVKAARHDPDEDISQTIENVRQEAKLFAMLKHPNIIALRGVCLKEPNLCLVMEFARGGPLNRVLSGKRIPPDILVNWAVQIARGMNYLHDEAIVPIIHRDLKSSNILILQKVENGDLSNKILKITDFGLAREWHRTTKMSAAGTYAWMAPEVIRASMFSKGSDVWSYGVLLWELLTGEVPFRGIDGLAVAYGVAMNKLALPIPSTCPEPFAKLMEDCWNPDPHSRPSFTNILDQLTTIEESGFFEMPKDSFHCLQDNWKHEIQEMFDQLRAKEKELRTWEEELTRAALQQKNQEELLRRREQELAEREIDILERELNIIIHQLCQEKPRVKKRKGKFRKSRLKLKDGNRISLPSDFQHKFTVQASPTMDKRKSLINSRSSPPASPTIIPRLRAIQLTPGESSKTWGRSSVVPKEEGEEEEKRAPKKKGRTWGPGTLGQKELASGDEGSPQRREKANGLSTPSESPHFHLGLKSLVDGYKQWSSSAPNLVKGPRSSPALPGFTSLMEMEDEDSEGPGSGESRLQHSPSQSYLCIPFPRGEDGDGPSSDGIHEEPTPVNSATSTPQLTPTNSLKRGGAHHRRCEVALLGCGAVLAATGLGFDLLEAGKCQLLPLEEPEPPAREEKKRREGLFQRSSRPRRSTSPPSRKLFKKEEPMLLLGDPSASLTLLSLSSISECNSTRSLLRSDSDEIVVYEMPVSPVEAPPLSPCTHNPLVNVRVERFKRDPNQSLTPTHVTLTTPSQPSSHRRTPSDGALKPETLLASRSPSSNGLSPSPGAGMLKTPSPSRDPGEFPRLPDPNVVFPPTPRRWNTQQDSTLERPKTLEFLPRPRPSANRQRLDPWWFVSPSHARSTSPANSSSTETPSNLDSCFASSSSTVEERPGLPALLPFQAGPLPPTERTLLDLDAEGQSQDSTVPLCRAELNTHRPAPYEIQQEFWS

MCF7 = experiment: Cytotoxicity in human MCF7 cells assessed as reduction in cell viability incubated for 72 hrs by MTS assay; type: functional, cell-based; details: MCF7, 72 h
[2] = biological target: Serine/threonine-protein kinase SIK3 (Homo sapiens, UniProt Q9Y2K2); experiment: Inhibition of SIK3 (unknown origin) by [33P]-ATP filter binding kinase assay
Serine/threonine-protein kinase SIK3, sequence (Q9Y2K2 whole entry): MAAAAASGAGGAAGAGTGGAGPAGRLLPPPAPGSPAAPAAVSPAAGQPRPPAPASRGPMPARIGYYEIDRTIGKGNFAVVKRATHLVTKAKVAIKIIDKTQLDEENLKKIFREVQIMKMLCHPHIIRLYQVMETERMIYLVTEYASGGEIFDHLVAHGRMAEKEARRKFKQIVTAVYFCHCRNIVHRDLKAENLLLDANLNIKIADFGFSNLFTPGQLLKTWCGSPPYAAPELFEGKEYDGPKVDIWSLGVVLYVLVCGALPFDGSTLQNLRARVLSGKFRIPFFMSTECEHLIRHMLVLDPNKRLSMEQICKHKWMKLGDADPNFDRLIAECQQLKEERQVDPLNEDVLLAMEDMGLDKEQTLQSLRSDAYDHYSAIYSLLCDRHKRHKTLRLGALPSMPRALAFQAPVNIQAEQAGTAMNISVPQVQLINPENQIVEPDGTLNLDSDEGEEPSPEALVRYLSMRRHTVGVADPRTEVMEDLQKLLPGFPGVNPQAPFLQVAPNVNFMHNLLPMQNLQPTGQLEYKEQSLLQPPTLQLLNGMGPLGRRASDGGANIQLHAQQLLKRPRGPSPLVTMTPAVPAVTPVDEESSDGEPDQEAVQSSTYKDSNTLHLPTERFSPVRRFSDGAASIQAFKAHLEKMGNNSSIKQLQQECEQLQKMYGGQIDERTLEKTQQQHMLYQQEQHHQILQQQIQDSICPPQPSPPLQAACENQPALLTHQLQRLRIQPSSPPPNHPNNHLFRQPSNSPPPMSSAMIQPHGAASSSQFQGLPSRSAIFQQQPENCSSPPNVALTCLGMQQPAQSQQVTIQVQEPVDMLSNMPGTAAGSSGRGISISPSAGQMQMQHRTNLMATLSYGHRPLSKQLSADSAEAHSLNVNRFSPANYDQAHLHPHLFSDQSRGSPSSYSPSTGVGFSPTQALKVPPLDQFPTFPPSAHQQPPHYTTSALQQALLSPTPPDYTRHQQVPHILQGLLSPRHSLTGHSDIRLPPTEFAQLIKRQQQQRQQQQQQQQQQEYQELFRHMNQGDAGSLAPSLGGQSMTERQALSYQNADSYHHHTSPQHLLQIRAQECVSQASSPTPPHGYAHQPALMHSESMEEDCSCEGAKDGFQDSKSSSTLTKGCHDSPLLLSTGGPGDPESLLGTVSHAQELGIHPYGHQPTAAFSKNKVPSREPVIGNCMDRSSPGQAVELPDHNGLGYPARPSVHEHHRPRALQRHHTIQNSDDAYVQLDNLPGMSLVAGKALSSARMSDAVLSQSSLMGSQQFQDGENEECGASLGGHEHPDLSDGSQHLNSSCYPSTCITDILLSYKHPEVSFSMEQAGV

[3] = biological target: Serine/threonine-protein kinase pim-2 (Homo sapiens, UniProt Q9P1W9); experiment: Inhibition of PIM2 (unknown origin) by [33P]-ATP filter binding kinase assay
Serine/threonine-protein kinase pim-2, sequence (Q9P1W9 whole entry): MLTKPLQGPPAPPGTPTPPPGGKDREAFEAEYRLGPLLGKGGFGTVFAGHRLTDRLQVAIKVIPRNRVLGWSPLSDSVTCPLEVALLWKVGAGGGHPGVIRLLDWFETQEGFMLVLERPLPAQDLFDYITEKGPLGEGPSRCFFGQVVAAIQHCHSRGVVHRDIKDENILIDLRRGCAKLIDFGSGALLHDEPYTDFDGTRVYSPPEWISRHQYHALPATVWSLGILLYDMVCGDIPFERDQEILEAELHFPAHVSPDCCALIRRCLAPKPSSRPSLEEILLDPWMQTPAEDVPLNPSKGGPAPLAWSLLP

A2058 = experiment: Cytotoxicity in human A2058 cells assessed as reduction in cell viability incubated for 72 hrs by MTS assay; type: functional, cell-based; details: A2058, 72 h
HT-29 = experiment: Cytotoxicity in human HT-29 cells assessed as reduction in cell viability incubated for 72 hrs by MTS assay; type: functional, cell-based; details: HT-29, 72 h
[4] = biological target: T1, Mitogen-activated protein kinase 15 (Homo sapiens, UniProt Q8TD08); experiment: Inhibition of ERK8 (unknown origin) by [33P]-ATP filter binding kinase assay
T1 sequence (Q8TD08 whole entry): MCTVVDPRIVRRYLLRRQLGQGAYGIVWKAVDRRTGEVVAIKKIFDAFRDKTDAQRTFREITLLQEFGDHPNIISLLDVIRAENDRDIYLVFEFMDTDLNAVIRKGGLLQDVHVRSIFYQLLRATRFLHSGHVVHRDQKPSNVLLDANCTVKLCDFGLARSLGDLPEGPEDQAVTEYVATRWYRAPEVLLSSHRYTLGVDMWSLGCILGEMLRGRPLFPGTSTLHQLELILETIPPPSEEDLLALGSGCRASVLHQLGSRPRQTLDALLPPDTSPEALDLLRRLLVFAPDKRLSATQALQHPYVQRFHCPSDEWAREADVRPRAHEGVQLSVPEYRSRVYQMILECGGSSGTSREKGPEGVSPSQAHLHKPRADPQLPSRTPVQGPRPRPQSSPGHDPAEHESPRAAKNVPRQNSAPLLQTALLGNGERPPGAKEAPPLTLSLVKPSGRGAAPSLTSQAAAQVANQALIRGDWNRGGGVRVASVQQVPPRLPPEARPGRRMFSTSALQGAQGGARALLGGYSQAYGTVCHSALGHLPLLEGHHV

MV4-11 = experiment: Cytotoxicity in human MV4-11 cells assessed as reduction in cell viability incubated for 72 hrs by MTS assay; type: functional, cell-based; details: MV4-11, 72 h
[5] = biological target: Serine/threonine-protein kinase pim-3 (Homo sapiens, UniProt Q86V86); experiment: Inhibition of PIM3 (unknown origin) by [33P]-ATP filter binding kinase assay
[6] = biological target: Mitogen-activated protein kinase kinase kinase 11 (Homo sapiens, UniProt Q16584); experiment: Inhibition of MLK3 (unknown origin) by [33P]-ATP filter binding kinase assay
Aurora kinase A = biological target: T2, Aurora kinase A (Homo sapiens, UniProt O14965); experiment: Inhibition of Aurora A (unknown origin) by [33P]-ATP filter binding kinase assay
T2 sequence (O14965 whole entry): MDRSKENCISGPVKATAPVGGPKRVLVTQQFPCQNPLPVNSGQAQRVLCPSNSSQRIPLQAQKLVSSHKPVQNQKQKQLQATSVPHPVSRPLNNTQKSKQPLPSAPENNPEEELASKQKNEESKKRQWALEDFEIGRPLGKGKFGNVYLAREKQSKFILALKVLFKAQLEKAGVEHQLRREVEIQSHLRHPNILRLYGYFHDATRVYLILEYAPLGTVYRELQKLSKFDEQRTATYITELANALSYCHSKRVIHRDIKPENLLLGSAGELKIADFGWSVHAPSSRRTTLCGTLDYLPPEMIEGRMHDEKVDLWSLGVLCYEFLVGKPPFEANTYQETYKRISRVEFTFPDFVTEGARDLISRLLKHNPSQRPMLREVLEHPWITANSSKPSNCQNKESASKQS

SK-BR-3 = experiment: Cytotoxicity in human SK-BR-3 cells assessed as reduction in cell viability incubated for 72 hrs by MTS assay; type: functional, cell-based; details: SK-BR-3, 72 h
[7] = biological target: Serine/threonine-protein kinase pim-1 (Homo sapiens, UniProt P11309); experiment: Inhibition of PIM1 (unknown origin) by [33P]-ATP filter binding kinase assay
Serine/threonine-protein kinase pim-1, sequence (P11309 whole entry): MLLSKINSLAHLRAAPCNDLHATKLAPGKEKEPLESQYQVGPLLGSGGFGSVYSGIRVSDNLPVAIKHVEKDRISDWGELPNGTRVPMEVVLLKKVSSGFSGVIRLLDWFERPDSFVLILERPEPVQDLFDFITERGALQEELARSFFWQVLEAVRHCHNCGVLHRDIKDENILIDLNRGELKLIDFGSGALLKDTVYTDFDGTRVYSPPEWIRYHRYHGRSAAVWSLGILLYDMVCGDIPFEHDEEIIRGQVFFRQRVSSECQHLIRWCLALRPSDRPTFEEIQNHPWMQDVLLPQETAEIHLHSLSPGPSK

Aurora kinase B = Aurora kinase B (Homo sapiens, UniProt Q96GD4); experiment: Inhibition of Aurora B (unknown origin) by [33P]-ATP filter binding kinase assay
Aurora kinase B, sequence (Q96GD4 whole entry): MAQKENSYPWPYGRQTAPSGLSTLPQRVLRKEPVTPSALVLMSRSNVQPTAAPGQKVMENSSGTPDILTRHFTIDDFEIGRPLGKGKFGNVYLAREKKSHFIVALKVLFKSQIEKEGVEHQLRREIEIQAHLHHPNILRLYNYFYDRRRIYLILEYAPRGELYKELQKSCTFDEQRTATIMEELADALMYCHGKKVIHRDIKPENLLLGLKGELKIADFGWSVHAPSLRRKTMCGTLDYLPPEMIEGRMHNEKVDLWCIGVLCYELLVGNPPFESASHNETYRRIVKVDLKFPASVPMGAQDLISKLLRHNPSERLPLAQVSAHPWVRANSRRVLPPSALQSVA

[8] = biological target: T3, Mitogen-activated protein kinase kinase kinase kinase 2 (Homo sapiens, UniProt Q12851); experiment: Inhibition of GCK (unknown origin) by [33P]-ATP filter binding kinase assay
T3 sequence (Q12851 whole entry): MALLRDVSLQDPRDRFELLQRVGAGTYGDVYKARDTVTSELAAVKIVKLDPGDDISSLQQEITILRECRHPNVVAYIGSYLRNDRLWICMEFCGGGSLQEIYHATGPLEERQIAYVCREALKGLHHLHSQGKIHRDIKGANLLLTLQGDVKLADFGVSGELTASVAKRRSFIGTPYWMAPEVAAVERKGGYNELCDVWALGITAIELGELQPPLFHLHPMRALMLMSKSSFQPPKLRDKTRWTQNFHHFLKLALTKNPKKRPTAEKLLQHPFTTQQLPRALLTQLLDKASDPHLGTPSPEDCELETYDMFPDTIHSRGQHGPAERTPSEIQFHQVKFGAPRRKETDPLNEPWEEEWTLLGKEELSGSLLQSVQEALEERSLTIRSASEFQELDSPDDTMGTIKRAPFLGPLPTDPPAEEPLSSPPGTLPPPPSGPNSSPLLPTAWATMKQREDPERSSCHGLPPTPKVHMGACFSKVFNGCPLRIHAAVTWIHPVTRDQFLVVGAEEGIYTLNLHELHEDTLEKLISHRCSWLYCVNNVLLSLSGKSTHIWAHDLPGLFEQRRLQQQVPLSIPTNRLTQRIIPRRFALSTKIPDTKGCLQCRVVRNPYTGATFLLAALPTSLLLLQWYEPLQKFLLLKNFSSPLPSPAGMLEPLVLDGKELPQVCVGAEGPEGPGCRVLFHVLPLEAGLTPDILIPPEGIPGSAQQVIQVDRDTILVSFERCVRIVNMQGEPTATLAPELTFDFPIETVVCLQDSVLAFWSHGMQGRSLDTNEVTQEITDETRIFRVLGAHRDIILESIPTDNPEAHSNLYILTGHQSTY

[9] = biological target: T4, Mitogen-activated protein kinase kinase kinase 7 (Homo sapiens, UniProt O43318); experiment: Inhibition of TAK1 (unknown origin) by [33P]-ATP filter binding kinase assay
T4 sequence (O43318 whole entry): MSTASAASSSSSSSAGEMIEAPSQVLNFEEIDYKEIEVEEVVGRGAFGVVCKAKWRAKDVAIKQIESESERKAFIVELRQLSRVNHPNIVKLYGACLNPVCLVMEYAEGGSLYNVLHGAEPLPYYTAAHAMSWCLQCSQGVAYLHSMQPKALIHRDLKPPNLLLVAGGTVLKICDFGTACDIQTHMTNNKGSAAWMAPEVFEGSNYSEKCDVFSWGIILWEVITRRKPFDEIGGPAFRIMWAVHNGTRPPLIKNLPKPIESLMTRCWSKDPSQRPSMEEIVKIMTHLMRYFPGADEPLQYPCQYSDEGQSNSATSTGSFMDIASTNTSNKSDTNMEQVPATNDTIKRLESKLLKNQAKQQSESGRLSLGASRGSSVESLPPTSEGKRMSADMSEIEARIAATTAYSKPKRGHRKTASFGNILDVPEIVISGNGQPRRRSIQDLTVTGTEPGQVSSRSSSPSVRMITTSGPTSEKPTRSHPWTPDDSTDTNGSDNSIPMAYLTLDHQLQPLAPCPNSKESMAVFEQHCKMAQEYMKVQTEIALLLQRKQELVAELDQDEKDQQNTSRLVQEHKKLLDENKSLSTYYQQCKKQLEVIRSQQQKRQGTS

MDA-MB-468 = experiment: Cytotoxicity in human MDA-MB-468 cells assessed as reduction in cell viability incubated for 72 hrs by MTS assay; type: functional, cell-based; details: MDA-MB-468, 72 h
[10] = biological target: Receptor-interacting serine/threonine-protein kinase 2 (Homo sapiens, UniProt O43353); experiment: Inhibition of RIPK2 (unknown origin) by [33P]-ATP filter binding kinase assay
Receptor-interacting serine/threonine-protein kinase 2, sequence (O43353 whole entry): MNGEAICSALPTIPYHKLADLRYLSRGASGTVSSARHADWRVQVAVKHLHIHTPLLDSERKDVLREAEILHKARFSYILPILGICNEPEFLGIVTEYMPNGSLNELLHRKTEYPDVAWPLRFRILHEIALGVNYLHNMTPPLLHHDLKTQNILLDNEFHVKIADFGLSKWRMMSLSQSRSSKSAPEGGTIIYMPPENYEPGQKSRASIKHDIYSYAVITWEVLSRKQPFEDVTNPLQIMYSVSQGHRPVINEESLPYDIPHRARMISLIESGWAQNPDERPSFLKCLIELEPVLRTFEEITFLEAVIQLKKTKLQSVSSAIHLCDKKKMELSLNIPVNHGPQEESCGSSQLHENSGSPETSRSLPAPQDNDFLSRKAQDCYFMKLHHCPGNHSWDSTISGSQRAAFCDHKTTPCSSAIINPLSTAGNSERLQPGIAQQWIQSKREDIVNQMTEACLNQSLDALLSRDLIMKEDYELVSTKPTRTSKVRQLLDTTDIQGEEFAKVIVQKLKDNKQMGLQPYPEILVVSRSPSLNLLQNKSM

MRC5 = experiment: Cytotoxicity in human MRC5 cells assessed as reduction in cell viability incubated for 72 hrs by MTS assay; type: cell-based; details: MRC5, 72 h
[11] = biological target: Dual specificity tyrosine-phosphorylation-regulated kinase 1A (Homo sapiens, UniProt Q13627); experiment: Inhibition of DYRK1A (unknown origin) by [33P]-ATP filter binding kinase assay
[12] = biological target: Cyclin-dependent kinase 9 (Homo sapiens, UniProt P50750); experiment: Inhibition of CDK9 (unknown origin)
Cyclin-dependent kinase 9, sequence (P50750 whole entry): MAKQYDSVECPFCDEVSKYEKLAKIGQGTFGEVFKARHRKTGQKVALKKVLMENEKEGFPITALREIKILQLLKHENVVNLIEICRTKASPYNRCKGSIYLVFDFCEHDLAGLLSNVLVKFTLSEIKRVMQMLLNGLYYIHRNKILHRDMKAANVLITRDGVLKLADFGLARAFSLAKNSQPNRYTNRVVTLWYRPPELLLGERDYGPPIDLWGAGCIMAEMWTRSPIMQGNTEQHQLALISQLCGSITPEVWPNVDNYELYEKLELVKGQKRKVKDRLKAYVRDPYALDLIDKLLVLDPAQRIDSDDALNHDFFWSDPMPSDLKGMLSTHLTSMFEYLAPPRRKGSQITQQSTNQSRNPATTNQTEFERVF

Structure (SMILES) | IC50 (MOLT-4) [µM] | IC50 [1] [µM] | IC50 (MCF7) [µM] | IC50 [2] [µM] | IC50 [3] [µM] | IC50 (A2058) [µM] | IC50 (HT-29) [µM] | IC50 [4] [µM] | IC50 (MV4-11) [µM] | IC50 [5] [µM] | IC50 [6] [µM] | IC50 (Aurora kinase A) [µM] | IC50 (SK-BR-3) [µM] | IC50 [7] [µM] | IC50 (Aurora kinase B) [µM] | IC50 [8] [µM] | IC50 [9] [µM] | IC50 (MDA-MB-468) [µM] | IC50 [10] [µM] | IC50 (MRC5) [µM] | further results
COc1cc(Br)cc2[nH]cc(-c3cnc(-c4cc(Br)c[nH]4)o3)c12 | > 10 | 22 | > 10 | > 10 | > 10 | > 10 | > 10 | > 10 | > 10 | > 10 | 23 | > 10 | > 10 | 43 | 7.8 | > 10 | 36 | > 10 | > 10 | > 10 | IC50 [11]: > 10 µM
Cc1cc(=O)c2c(O)cc(O)c([C@@H]3CCN(C)C[C@@H]3O)c2o1 |  |  |  |  |  |  |  |  |  |  |  |  |  |  |  |  |  |  |  |  | IC50 [12]: 0.3 µM
COc1cc(Br)cc2[nH]c(I)c(-c3cnc(-c4ccc[nH]4)o3)c12 | > 10 | 21 | > 10 | > 10 | > 10 | > 10 | > 10 | > 10 | > 10 | > 10 | 19 | > 10 | > 10 | 18 | 31 | 40 | 18 | > 10 | > 10 | > 10 | IC50 [11]: > 10 µM
